Values quoted from earlier work as cited in publication PMC7028125 (Clinical Pharmacology in Drug Development, 2019).

Legend:
P‐glycoprotein = system: P‐glycoprotein; parameters: method as in PMID 23132334; settings: in vitro
[1] = system: multidrug and toxin extrusion 1 transporter; settings: in vitro
[2] = system: organic cation transporter 2; parameters: method as in PMID 23132334; settings: in vitro
[3] = system: breast cancer resistance protein; parameters: method as in PMID 23132334; settings: in vitro
[4] = mass balance study of 20 mg [14C]‐dolutegravir (80 µCi)

## C[C@@H]1CCO[C@H]2Cn3cc(C(=O)NCc4ccc(F)cc4F)c(=O)c(O)c3C(=O)N12 [Dolutegravir, dolutegravir]
P‐glycoprotein
  Substrate for P‐glycoprotein (in words): substrate
[1]
  Inhibition of multidrug and toxin extrusion 1 transporter (in words): potently inhibits
[2]
  Inhibition of organic cation transporter 2 (in words): potently inhibits
[3]
  Substrate for breast cancer resistance protein (in words): substrate
[4]
  Dolutegravir recovered in feces: 64.0%
  Dolutegravir recovered in urine: 31.6%
